Data as given in patent publication US9611276B2, “Imidazo bicyclic iminium compounds as antitumor agents” (THE BOARD OF TRUSTEES OF THE LELAND STANFORD JUNIOR …, priority 2012, dated 2017).
Like-named read-outs stand apart in the source and are kept apart here.

Columns and labels:
Hh pathway activity = assay: Sufu-KO-LIGHT cell assay, Gli-dependent firefly luciferase reporter; assay type: cell-based, mouse; details: for IC50: Mus musculus
Description: (§1) Sufu-KO-LIGHT cells were derived from Sufu knockout mouse embryonic fibroblasts according to the method of Chen et al. [Genes Dev. 2009; 23(16):1910-28.] The cells were co-transfected with the zeocin resistance vector (pVgRXR, Invitrogen) and a firefly luciferase reporter driven by eight Gli binding sites and a γ-crystallin basal promoter (8XGliBS-FL) [see Sasaki et al. Development. 1997; 124(7):1313-22.2]. […] Sufu-KO-LIGHT cells were cultured in DMEM (Invitrogen, 11965) containing 10% (v/v) fetal bovine serum (Invitrogen, No. 26140), 150 μg/mL zeocin (Invitrogen, R250-01), 1 mM sodium pyruvate (Invitrogen, 11360) and 1× PenStrep (Gibco, 15140).
(§2) All test compounds were dissolved in DMSO at 50 mM, serially diluted by 1:3, 1:4 or 1:5 in a 96-well translucent microplate (Greiner bio-one, 650201) and stored at −20° C. These serial dilutions were added to assay media freshly with final DMSO concentration of 0.2% (v/v).
The Sufu-KO-LIGHT cell assay provides a measure of Hh pathway activity and cytotoxicity. Sufu-KO-LIGHT cells were seeded into a 96-well plate (35,000 cells/well), cultured to confluency for 24 hrs and then incubated with test compounds in DMEM without phenol red (Invitrogen, 26140) containing 0.5% (v/v) fetal bovine serum (Invitrogen, No. 26140), 150 μg/mL zeocin (Invitrogen, R250-01), 1 mM sodium pyruvate (Invitrogen, 11360), 1× PenStrep (Gibco, 15140) for 16 hrs. Bright Glo (Promega, E2620) reagent (50 μL/well) was added to the cells, and luciferase activities were determined on a microplate luminometer (Veritas). To assess cytotoxicity, after 15 hrs of incubation with test compounds, CellTiter 96 AQueous One Solution Cell Proliferation Assay (Promega, G3580) reagent (20 μL/well) was added. Cell viability was determined by measuring absorption at 490 nm after 1 hr of incubation on a microplate spectrophotometer (Benchmark Plus, Bio-Rad). Biological triplicates were analyzed for each test compounds.

Sufu-KO-LIGHT cells = assay: Sufu-KO-LIGHT cell assay, cytotoxicity (CellTiter 96 AQueous One); assay type: cell-based, mouse
Description: as §1, §2
The Sufu-KO-LIGHT cell assay provides a measure of Hh pathway activity and cytotoxicity. […] Bright Glo (Promega, E2620) reagent (50 μL/well) was added to the cells, and luciferase activities were determined on a microplate luminometer (Veritas). […] Cell viability was determined by measuring absorption at 490 nm after 1 hr of incubation on a microplate spectrophotometer (Benchmark Plus, Bio-Rad). Biological triplicates were analyzed for each test compounds.

Wnt pathway activity = assay: Wnt-LIGHT cell assay with Wnt3a-conditioned medium; assay type: cell-based
Description: Wnt-LIGHT cells [see Hyman et al. Proc Natl Acad Sci USA. 2009; 106(33):14132-7], a L-cell-based cell line containing a stably integrated TCF/LCF-dependent firefly luciferase reporter (SuperTopFlash), constitutive Renilla luciferase reporter (pRLSV40, Promega), and geneticin resistance vector (pcDNA3, Invitrogen), were cultured in DMEM (Invitrogen, 11965) containing 10% (v/v) fetal bovine serum (Invitrogen, No. 26140), 400 μg/mL G418 (Invitrogen, 11811) and 1× PenStrep (Gibco, 15140).
as §2
The Wnt-LIGHT cell assay provides a measure of Wnt pathway activity. Wnt3a-conditioned medium was prepared by culturing Wnt3a-expressing L cells obtained from ATCC in DMEM (Invitrogen, 11965) containing 10% (v/v) fetal bovine serum (Invitrogen, No. 26140) and 1× PenStrep (Gibco, 15140). […] The cells were lysed with passive lysis buffer (50 μL/well), and 10 μL of the obtained lysate were analyzed for firefly and Renilla luciferase activities using Dual-Luciferase Reporter Assay System (Promega, E1960) (50 μL/well of each reagent) on a microplate luminometer (Veritas). Biological triplicates were analyzed for each test compounds.

Smo = target: T1, Smo (Mus musculus, UniProt P56726); assay: Smo trafficking assay in NIH 3T3 cells; assay type: cell-based; details: Hh-responsive cells, ShhN stimulation
T1 construct: endogenous in cells; host or cells: NIH 3T3
Text: The cells were imaged using a Plan Apochromat 63×/1.4-0.6 oil immersion objective on an upright Leica DM4500B compound microscope.

Gli2 = Gli2 (Homo sapiens, UniProt P10070); assay: Overexpression of Gli2 in Gli1 null cells, firefly luciferase reporter; assay type: cell-based, mouse; set-up: expressed in transfected cells; host or cells: Gli1-/- immortalized mouse embryonic fibroblasts
Description: Gli1 null cells [see Lipinski et al. BMC Cell Biol. 2008; 9:49], an immortalized mouse embryonic fibroblast cell line lacking the Gli1 gene, were cultured in DMEM (Invitrogen, 11965) containing 10% (v/v) calf serum (ATCC, 30-2030), 1 mM sodium pyruvate (Invitrogen, 11360), 1× PenStrep (Gibco, 15140) and 1×MEM non-essential amino acids solution (11140, Invitrogen).
as §2
Overexpression of Gli2 in Gli1 null cells provides a measure of Gli2-induced pathway activity. pcDNA-derived Gli2 expression vectors (200 ng/well) and a 1:19 mixture (total 200 ng/well) of constitutive Renilla luciferase reporter (pRLTK, Promega) and firefly luciferase reporter (8XGliBS-FL) were mixed with FuGene HD transfection reagent (1.2 μL/well, Promega, E2311) in Opti-MEM Reduced-Serum Medium with GLutaMAX (Invitrogene, 51985) at a total volume of 25 μL/well. […] The cells were lysed with passive lysis buffer (200 μL/well), and 10 μL of the obtained lysate were analyzed for firefly and Renilla luciferase activities using Dual-Luciferase Reporter Assay System (Promega, E1960) (50 μL/well of each reagent) on a microplate luminometer (Veritas). […]

Sequence of Gli2 (P10070 whole entry, species assumed): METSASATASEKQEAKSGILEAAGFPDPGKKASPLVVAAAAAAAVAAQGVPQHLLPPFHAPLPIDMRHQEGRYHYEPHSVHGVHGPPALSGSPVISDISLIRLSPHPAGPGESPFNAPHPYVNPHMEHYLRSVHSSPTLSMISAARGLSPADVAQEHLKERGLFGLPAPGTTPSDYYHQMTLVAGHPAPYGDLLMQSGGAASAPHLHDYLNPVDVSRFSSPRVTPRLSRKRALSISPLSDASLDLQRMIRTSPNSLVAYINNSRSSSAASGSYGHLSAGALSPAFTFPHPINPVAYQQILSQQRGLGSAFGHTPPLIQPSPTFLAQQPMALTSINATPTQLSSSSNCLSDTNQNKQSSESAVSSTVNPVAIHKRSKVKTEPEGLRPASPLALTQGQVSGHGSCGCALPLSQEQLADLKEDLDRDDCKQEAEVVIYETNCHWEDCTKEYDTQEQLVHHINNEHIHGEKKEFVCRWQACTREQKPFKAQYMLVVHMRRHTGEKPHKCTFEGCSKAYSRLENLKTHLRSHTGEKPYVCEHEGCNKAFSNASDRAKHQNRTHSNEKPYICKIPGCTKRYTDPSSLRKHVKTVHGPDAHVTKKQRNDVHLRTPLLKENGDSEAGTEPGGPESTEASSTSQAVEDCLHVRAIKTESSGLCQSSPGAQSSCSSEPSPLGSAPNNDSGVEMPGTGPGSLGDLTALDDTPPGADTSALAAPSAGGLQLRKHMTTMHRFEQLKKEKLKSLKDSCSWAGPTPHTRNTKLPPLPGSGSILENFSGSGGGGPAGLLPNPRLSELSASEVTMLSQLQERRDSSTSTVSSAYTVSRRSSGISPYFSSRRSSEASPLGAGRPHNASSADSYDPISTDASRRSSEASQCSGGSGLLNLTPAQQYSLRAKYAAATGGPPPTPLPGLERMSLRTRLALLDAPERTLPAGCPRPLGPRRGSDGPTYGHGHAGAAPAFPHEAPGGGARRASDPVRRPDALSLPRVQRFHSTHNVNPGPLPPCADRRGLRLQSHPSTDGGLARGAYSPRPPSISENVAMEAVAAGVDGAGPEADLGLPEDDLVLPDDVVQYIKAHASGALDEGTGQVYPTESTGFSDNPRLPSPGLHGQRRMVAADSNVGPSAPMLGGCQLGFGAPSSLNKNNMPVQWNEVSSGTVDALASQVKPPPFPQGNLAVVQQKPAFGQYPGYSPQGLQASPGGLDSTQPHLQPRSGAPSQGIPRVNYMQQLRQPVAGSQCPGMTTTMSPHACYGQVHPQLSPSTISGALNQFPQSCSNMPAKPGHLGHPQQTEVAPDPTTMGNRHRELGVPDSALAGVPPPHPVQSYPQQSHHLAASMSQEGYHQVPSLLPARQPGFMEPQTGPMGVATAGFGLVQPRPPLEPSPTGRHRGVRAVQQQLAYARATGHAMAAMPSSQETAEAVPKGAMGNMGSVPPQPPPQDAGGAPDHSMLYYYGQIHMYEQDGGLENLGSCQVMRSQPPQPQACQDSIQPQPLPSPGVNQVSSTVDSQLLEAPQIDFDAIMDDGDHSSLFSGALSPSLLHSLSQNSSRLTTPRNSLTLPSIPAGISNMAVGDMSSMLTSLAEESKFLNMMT
T1 sequence (P56726 33-793): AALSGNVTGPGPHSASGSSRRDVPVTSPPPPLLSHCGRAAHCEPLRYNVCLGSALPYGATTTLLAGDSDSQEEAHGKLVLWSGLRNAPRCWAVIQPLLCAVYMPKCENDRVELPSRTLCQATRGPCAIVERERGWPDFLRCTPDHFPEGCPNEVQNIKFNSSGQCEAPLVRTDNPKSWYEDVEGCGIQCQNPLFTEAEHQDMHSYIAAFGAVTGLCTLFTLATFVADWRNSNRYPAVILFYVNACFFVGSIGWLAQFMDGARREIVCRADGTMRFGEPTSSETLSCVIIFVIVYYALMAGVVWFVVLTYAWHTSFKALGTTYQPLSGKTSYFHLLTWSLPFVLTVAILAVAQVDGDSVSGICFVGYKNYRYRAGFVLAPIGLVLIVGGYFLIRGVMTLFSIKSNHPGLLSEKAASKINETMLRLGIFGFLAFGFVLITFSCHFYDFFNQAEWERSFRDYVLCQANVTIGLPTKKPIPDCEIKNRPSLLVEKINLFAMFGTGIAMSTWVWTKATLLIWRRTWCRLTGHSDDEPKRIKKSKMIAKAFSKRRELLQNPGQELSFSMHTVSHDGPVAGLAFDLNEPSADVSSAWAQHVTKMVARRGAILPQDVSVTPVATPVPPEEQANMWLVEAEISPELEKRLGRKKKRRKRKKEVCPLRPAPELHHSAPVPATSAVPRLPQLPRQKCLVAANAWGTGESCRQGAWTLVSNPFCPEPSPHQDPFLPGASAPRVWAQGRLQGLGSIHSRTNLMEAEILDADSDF

CCOc1ccc(-[n+]2cc(-c3ccc(Br)cc3)n3c2CCCCC3)cc1 [Compound A-1]
IC50 (Hh pathway activity): 1420 ± 960 nM | IC50 (Hh pathway activity; read-out: IC50, firefly luciferase): 1420 ± 960 nM | Inhibition of Hh pathway activity (Hh pathway activity; Sufu-KO-LIGHT cells): inhibits Hh pathway activity | General cytotoxicity (Sufu-KO-LIGHT cells): not generally cytotoxic | IC50, cytotoxicity (Sufu-KO-LIGHT cells; Sufu-KO-LIGHT cells): No toxicity | Inhibition of Wnt signaling (Wnt pathway activity): did not inhibit Wnt signaling | IC50, firefly luciferase (Wnt pathway activity; Wnt-LIGHT w/ Wnt3a): No inhibition | Effect on Smo localization / trafficking (Smo): did not affect Smo localization | Gli2-induced Hh reporter expression in cells lacking Gli1 (Gli2): not able to inhibit | IC50, firefly luciferase (Gli2; Gli2-overexpressing Gli1-/-): No inhibition
